From patent US7501418B2, “Fused heterocyclic isoxazoline derivatives and their use as anti-depressants” (Janssen Pharmaceutica, N.V., priority 2002, dated 2009) come the findings set out here.

The target in one data set is T1, h5-HT transporter (Homo sapiens, UniProt P31645).
T1 construct: Human platelet membranes (Oceanix Biosciences Corporation, Hanover, Md., USA) were thawed; tissue Oceanix Biosciences Corporation, Hanover, Md., USA; host or cells: human platelet membranes
In words: Radioligand binding experiment for 5-HT transporter ([3H]paroxetine). To be noted: 5-HTT (pIC50), human platelet membranes, [3H]paroxetine 0.5 nM. On the procedure: In general, a low concentration of a radioligand with a high binding affinity for a particular receptor or transporter is incubated with a sample of a tissue preparation enriched in a particular receptor or transporter or with a preparation of cells expressing cloned human receptors in a buffered medium. During the incubation, the radioligand binds to the receptor or transporter. When equilibrium of binding is reached, the receptor bound radioactivity is separated from the non-bound radioactivity, and the receptor- or transporter-bound activity is counted. The interaction of the test compounds with the receptor is assessed in competition binding experiments. Various concentrations of the test compound are added to the incubation mixture containing the receptor- or transporter preparation and the radioligand. The test compound in proportion to its binding affinity and its concentration inhibits binding of the radioligand. The radioligand used for hα2A, hα2B and hα2C receptor binding was [^3H]-raulwolscine and for the h5-HT transporter was [^3H]paroxetine. Human platelet membranes (Oceanix Biosciences Corporation, Hanover, Md., USA) were thawed, diluted in buffer (Tris-HCl 50 mM, 120 mM NaCl and 5 mM KCl) and quickly (max 3 s) homogenised with an Ultraturrax homogenizer. In a total volume of 250 μL, 50-100 μg protein was incubated with [^3H]paroxetine (NET-869) (New England Nuclear, USA) (0.5 nM final concentration) with or without competitor for 60 min at 25 ° C. Incubation was stopped by rapid filtration of the incubation mixture over GF/B filters, pre-wetted with 0.1% polyethyleneamine, using a Filtermate196 harvester (Packard, Meriden, Conn.). Filters were rinsed extensively with ice-cold buffer and radioactivity on the filters was counted in a Topcount liquid scintillation counter (Packard, Meriden, Conn.). Data were expressed as cpm. Imipramine (at 1 μM final concentration) was used to determine the non-specific binding. Data from assays in the presence of compound were calculated as a percentage of total binding measured in the absence of test compound. Inhibition curves, plotting percent of total binding versus the log value of the concentration of the test compound, were automatically generated, and sigmoidal inhibition curves were fitted using non-linear regression. The pIC50 values of test compounds were derived from individual curves.

The target of a further data set is T2, hα2A receptor (Homo sapiens, UniProt P08913).
T2 construct: expressed in transfected cells
T2 sequence (P08913 1-465): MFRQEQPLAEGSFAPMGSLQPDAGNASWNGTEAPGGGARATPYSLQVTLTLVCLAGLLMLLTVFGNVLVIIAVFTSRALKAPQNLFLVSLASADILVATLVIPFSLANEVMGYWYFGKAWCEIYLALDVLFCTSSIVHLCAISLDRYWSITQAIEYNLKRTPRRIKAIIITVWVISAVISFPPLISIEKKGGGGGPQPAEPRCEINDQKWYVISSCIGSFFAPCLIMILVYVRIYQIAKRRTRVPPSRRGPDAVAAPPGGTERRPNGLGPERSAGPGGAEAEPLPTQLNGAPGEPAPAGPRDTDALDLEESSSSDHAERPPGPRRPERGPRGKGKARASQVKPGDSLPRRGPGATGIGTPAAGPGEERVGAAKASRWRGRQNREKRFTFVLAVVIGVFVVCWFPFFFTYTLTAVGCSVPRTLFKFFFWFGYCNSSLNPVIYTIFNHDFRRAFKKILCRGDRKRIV
Nature of the data set: Radioligand binding experiment for α2A-adrenergic receptor ([3H]-raulwolscine). To be noted: hα2A (pIC50), CHO cell membranes with human α2A receptor, [3H]raulwolscine 1 nM. On the procedure:
(§1) In general, a low concentration of a radioligand with a high binding affinity for a particular receptor or transporter is incubated with a sample of a tissue preparation enriched in a particular receptor or transporter or with a preparation of cells expressing cloned human receptors in a buffered medium. During the incubation, the radioligand binds to the receptor or transporter. When equilibrium of binding is reached, the receptor bound radioactivity is separated from the non-bound radioactivity, and the receptor- or transporter-bound activity is counted. The interaction of the test compounds with the receptor is assessed in competition binding experiments. Various concentrations of the test compound are added to the incubation mixture containing the receptor- or transporter preparation and the radioligand. The test compound in proportion to its binding affinity and its concentration inhibits binding of the radioligand. The radioligand used for hα2A, hα2B and hα2C receptor binding was [^3H]-raulwolscine and for the h5-HT transporter was [^3H]paroxetine. CHO cells, stabile transfected with human adrenergic-α2A-, -α2B or α2C receptor cDNA, were cultured in Dulbecco's Modified Eagle's Medium (DMEM)/Nutrient mixture Ham's F12 (ratio 1:1)(Gibco, Gent-Belgium) supplemented with 10% heat inactivated fetal calf serum (Life Technologies, Merelbeke-Belgium) and antibiotics (100 IU/ml penicillin G, 100 μg/ml streptomycin sulphate, 110 μg/ml pyruvic acid and 100 μg/ml L-glutamine). One day before collection, cells were induced with 5 mM sodiumbutyrate. Upon 80-90% of confluence, cells were scraped in phosphate buffered saline without Ca^2+ and Mg^2+ and collected by centrifugation at 1500×g for 10 min. The cells were homogenised in Tris-HCl 50 mM using an Ultraturrax homogenizer and centrifuged for 10 min at 23,500×g. The pellet was washed once by resuspension and rehomogenization and the final pellet was resuspended in Tris-HCl, divided in 1 ml aliquots and stored at −70° C. Membranes were thawed and re-homogenized in incubation buffer (glycylglycine 25 mM, pH 8.0). In a total volume of 500 μl, 2-10 μg protein was incubated with [^3H]raulwolscine (NET-722) (New England Nuclear, USA) (1 nM final concentration) with or without competitor for 60 min at 25° C. followed by rapid filtration over GF/B filter using a Filtermate196 harvester (Packard, Meriden, Conn.). Filters were rinsed extensively with ice-cold rinsing buffer (Tris-HCl 50 mM pH 7.4). Filter-bound radioactivity was determined by scintillation counting in a Topcount (Packard, Meriden, Conn.) and results were expressed as counts per minute (cpm). Non-specific binding was determined in the presence of 1 μM oxymetazoline for hα2A- and hα2B receptors and 1 μM spiroxatrine for hα2C receptors. Data from assays in the presence of compound were calculated as a percentage of total binding measured in the absence of test compound. Inhibition curves, plotting percent of total binding versus the log value of the concentration of the test compound, were automatically generated, and sigmoidal inhibition curves were fitted using non-linear regression. The pIC50 values of test compounds were derived from individual curves.

A further data set concerns the target T3, hα2C receptor (Homo sapiens, UniProt P18825).
T3 construct: expressed in transfected cells
T3 sequence (P18825 1-462): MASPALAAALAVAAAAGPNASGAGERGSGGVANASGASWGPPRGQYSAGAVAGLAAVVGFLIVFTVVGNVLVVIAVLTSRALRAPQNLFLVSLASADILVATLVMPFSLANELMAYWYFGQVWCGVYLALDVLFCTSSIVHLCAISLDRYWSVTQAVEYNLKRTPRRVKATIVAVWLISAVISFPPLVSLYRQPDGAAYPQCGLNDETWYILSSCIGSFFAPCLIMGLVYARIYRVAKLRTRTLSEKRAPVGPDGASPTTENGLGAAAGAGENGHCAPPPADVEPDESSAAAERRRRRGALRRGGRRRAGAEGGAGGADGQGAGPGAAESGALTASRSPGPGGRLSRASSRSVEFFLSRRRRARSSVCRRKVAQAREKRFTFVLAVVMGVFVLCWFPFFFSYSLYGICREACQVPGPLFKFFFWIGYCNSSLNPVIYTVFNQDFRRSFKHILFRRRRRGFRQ
In words: Radioligand binding experiment for α2C-adrenergic receptor ([3H]-raulwolscine). On the procedure: as §1

For a further data set, the target named is T4, hα2B receptor (Homo sapiens, UniProt P18089).
T4 construct: expressed in transfected cells
T4 sequence (P18089 1-450): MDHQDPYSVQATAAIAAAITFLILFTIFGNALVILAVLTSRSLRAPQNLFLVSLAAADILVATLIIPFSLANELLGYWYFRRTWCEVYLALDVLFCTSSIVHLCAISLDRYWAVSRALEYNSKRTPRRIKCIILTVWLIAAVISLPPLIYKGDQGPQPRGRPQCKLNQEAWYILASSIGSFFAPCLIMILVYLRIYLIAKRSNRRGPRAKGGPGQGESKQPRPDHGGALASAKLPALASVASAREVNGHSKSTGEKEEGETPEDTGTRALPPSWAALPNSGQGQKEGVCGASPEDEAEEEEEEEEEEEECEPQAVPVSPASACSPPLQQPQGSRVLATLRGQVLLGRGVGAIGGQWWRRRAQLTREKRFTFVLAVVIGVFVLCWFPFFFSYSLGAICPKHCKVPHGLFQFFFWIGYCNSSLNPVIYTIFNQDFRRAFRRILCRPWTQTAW
In words: Radioligand binding experiment for α2B-adrenergic receptor ([3H]-raulwolscine). On the procedure:
as §1

Where two headings read alike, the source gives them in different places.

T1 sequence (P31645 whole entry): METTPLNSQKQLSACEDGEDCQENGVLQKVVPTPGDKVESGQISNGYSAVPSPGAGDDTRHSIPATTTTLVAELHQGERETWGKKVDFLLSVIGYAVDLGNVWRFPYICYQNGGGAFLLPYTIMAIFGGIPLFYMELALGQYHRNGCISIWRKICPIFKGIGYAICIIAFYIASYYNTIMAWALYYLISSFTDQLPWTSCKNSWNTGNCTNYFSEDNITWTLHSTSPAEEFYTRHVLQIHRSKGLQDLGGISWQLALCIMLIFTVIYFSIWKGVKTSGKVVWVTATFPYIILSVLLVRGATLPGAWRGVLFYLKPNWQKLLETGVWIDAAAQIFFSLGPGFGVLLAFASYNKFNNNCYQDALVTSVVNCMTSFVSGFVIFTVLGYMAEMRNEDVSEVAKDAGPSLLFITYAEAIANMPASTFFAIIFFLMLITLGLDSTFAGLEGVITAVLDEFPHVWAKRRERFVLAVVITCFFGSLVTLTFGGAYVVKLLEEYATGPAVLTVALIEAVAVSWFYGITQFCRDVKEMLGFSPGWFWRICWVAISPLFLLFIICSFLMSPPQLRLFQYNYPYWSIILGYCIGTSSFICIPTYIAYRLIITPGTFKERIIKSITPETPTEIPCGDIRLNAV

One may read the melting point as the temperature of the solid-liquid transition. As usually defined, the IC50 is the midpoint of a concentration-inhibition curve. Higher therefore signals weaker potency in that assay. Take `C/C(=C\c1ccccc1)CN1CCN(CC2ON=C3c4cc5ccn(CCO)c5cc4OCC32)CC1` (single isomer, unassigned) [Compound 17, B-2-{3-[4-(2-methyl-3-phenyl-allyl)-piperazin-1-ylmethyl]-3a,4-dihydro-3H-2,5-dioxa-1,7-diaza-dicyclopenta[a,g]naphthalen7-yl}-ethanol]: the melting point fell in the range of 167.5 to 170.5 °C. In addition, at h5-HT transporter, the IC50 was 501 nM. For the same compound, the 50% inhibitory concentration (IC50) on hα2A receptor was 10 nM. The compound further had an IC50 at hα2C receptor (hα2C (pIC50), CHO cell membranes with human α2C receptor, [3H]raulwolscine 1 nM) of 2 nM. Besides, the IC50 on hα2B receptor (hα2B (pIC50), CHO cell membranes with human α2B receptor, [3H]raulwolscine 1 nM) is 5.01 nM.

On to `C/C(=C\c1ccccc1)CN1CCN(C[C@@H]2ON=C3c4cc5cc[nH]c5cc4OC[C@H]32)CC1` (relative stereo) [Compound 1, 3-[4-(2-Methyl-3-phenyl-allyl)-piperazin-1-ylmethyl]-3a,4-dihydro-3H-2,5-dioxa-1,7-diaza-dicyclopenta[a,g]naphthalene], for which the melting point is 173.2 to 179.1 °C. At h5-HT transporter, this compound showed an IC50 of 3.98 nM. Besides, the IC50 on hα2A receptor was 5.01 nM. The IC50 on hα2C receptor was 1 nM. In addition, on hα2B receptor, the concentration for half-maximal inhibition (IC50) is 3.98 nM.
